In patent US5489609A (Zaidan Hoijn Seisan Kaihatsu Kagaku Kenkyusho, priority 1992, dated 1996):

Legend:
[1] = system: Hepatopathy in mice (carbon tetrachloride); test: Anti-hepatitis test: hepatopathy in mice (carbon tetrachloride); assay type: in vivo, ddy strain male mice; conditions: for ALT, mean ± S.D. / AST, mean ± S.D.: 200 mg/kg orally 3 h after carbon tetrachloride, blood 24 h after carbon tetrachloride, * p < 0.05; for suppressory activity (hepatopathy in mice): 200 mg/kg orally, in words
Experimental: A group of 8 ddy strain male mice (weighing about 30 g) kept fasting from the previous day was treated by intraperitoneal injection of 0.5% carbon tetrachloride in olive oil at a dose of 0.6 ml and thereafter allowed free access to food. Three hours after the administration of carbon tetrachloride, the test compound suspended in powdered gum arabic was given to the animals orally at a dose of 200 mg/kg, and blood samples were drawn from the mice under anesthesia with ether through the abdominal descending aorta 24 hours after the administration of carbon tetrachloride. The collected blood was centrifuged at a rate of 3,000 rpm for 15 min, followed by measurement of the activities of aspartate transaminase (AST) and alanine transaminase (ALT) by means of the Lippie method.

[2] = system: isolated liver cells of rats; test: Disorder of isolated liver cells (carbon tetrachloride vapor; ALT and AST leached out); assay type: cell-based; conditions: 37° C., 30 min, * p < 0.05
Experimental: Isolated liver cells of rats were prepared by means of the Segren's collagenase irrigation method, whereby a liver cell suspension was prepared to a concentration of […]. Into 2 ml of the suspension placed in an Erlenmeyer flask was put a test tube of about 0.5 ml capacity containing a 25% carbon tetrachloride solution in olive oil to saturate the reaction system with carbon tetrachloride vapor, and after the flask was tightly stoppered, preincubation was carried out at 37° C. for 30 min. One ml of a solution of the test compound in Hunk's solution was added to the suspension of liver cells, while 1 ml of Hunk's solution was added to a control. After the reaction was allowed to proceed at 37° C. for 30 min, a specifically determined volume of the reaction solution was pipetted out and immediately centrifuged under 500 g for 30 seconds, and ALT and AST leached out into the supernatant liquid were determined for activity by the Lippie method.

acetaldehyde toxicity = test: Protective activity against acetaldehyde toxicity (death rate within 24 hours); assay type: in vivo, Rats; conditions: 30 min before acetaldehyde 1,200 mg/kg, 24 h
Experimental: Rats kept fasting with a supply of drinking water were weighed and divided into groups in such a manner that the mean body weight was uniform among the groups, with each group consisting of 10 heads. The rats were given acetaldehyde orally at a dose of 1,200 mg/kg, and the death rate within 24 hours was determined, wherein the test drug substances were administered orally 30 min before the application of acetaldehyde, with the vehicle (0.5% aqueous sodium carboxymethylcellulose) alone being given to a control group.

[3] = system: Stomach injury through water-immersion constraint stress; test: Anti-ulcer test: stomach injury through water-immersion constraint stress; assay type: in vivo, male rats of KBL Wistar strain
Experimental: The rats were divided into groups each consisting of 8 heads in such a way that their mean body weights were nearly uniform among the groups, stress-loaded by soaking the animals placed in a stress cage of Univ. of Tokyo type in a water tank at 23° C. up to the xiphoid and then sacrificed through cervical vertebrae dislocation 7.5 hours later. The stomachs were removed and treated with formalin, and individual ulcers formed in the glandular portion of the stomach were measured in length (mm), with the measured ulcer lengths being summed for each rat. The test compound, suspended in a 0.5% aqueous solution of sodium carboxymethylcellulose, was given to the test group orally at a dose of 10 ml/kg body weight 30 min before the water-soaking constraint, whereas the vehicle alone was applied to a control group.

[4] = system: Stomach injury with hydrochloric acid/ethanol; test: Anti-ulcer test: stomach injury with hydrochloric acid/ethanol; assay type: in vivo, male rats of KBL Wistar strain
Experimental: The rats were divided into groups each consisting of 8 heads in such a way that their mean body weights were nearly uniform among the groups, treated by oral administration of hydrochloric acid/ethanol (0.15 mole hydrochloric acid solution in 80% ethanol) at a dose of 5 ml/kg body weight and sacrificed through cervical vertebrae dislocation 1 hour after administration. The stomachs were removed and treated with formalin, and individual ulcers formed in the glandular portion of the stomach were measured in length (mm), with the measured ulcer lengths summed for each rat. The test compound was suspended in a 0.5% aqueous solution of sodium carboxymethylcellulose, and the suspension was given to the test group orally at a dose of 10 ml/kg body weight 30 min before administration of hydrochloric acid/ethanol, whereas the vehicle (0.5% aqueous sodium carboxymethyl-cellulose) alone was applied to a control group.

[5] = system: Rats of KBL Wistar strain; test: Acute toxicity test; assay type: in vivo; conditions: 7 day period
Experimental: Rats of KBL Wistar strain (weighing about […]), divided into groups each consisting of 3 heads, were treated through oral administration of the test compound suspended in powder gum arabic, followed by observation for any abnormalities over a 7 day period to find the number of dead animals.

[6] = conc. of test soln. 0.0125 mg/dl
[7] = conc. of test soln. 0.025 mg/dl
[8] = 50 mg/kg orally, vs Vehicle No. 1
[9] = 150 mg/kg orally, vs Vehicle No. 3

## CC1(C)[C@@H](O[C@H]2O[C@H](C(=O)O)[C@@H](O)[C@H](O)[C@H]2O[C@@H]2O[C@H](C(=O)O)[C@@H](O)[C@H](O)[C@H]2O)CC[C@]2(C)[C@H]3C(=O)C=C4[C@@H]5C[C@@](C)(C(=O)O)CC[C@]5(C)CC[C@@]4(C)[C@]3(C)CC[C@@H]12 [Glycyrrhizin]
[1]
  ALT, mean ± S.D.: 13362.1 ± 1753.1 IU
  AST, mean ± S.D.: 12367.6 ± 1102.1 IU
  suppressory activity (hepatopathy in mice): none of 2-aminoethanesulfonic acid, glutathione and glycyrrhizin that were used as controls at the same dose developed suppressory activity

## N[C@@H](CCC(=O)N[C@@H](CS)C(=O)NCC(=O)O)C(=O)O [Glutathione]
[1]
  ALT, mean ± S.D.: 12030.2 ± 1204.5 IU
  AST, mean ± S.D.: 11423.3 ± 1960.8 IU
  suppressory activity (hepatopathy in mice): none of 2-aminoethanesulfonic acid, glutathione and glycyrrhizin that were used as controls at the same dose developed suppressory activity

## NCCS(=O)(=O)O [2-Aminoethanesulfonic acid]
[2]; [6]
  ALT, mean ± S.D.: 847.6 ± 60.4 IU
  AST, mean ± S.D.: 338.8 ± 37.1 IU
[2]; [7]
  ALT, mean ± S.D.: 869.8 ± 87.6 IU
  AST, mean ± S.D.: 309.8 ± 32.4 IU
[2]; conc. of test soln. 0.05 mg/dl
  ALT, mean ± S.D.: 849.1 ± 60.2 IU
  AST, mean ± S.D.: 296.3 ± 30.5 IU
[2]; conc. of test soln. 0.1 mg/dl
  ALT, mean ± S.D.: 867.7 ± 158.8 IU
  AST, mean ± S.D.: 318.8 ± 49.5 IU
Acetaldehyde toxicity; 250 mg/kg orally
  Death rate: 60%
  No. of dead animals (n/10): 6/10
Acetaldehyde toxicity; 500 mg/kg orally
  Death rate: 50%
  No. of dead animals (n/10): 5/10
[1]
  ALT, mean ± S.D.: 14609.6 ± 1684.5 IU
  AST, mean ± S.D.: 12885.2 ± 2468.3 IU
  suppressory activity (hepatopathy in mice): none of 2-aminoethanesulfonic acid, glutathione and glycyrrhizin that were used as controls at the same dose developed suppressory activity

## NCCS(=O)(=O)O.NCCS(=O)(=O)O.NCCS(=O)(=O)[O-].NCCS(=O)(=O)[O-].[Zn+2] [FTZ, [Bis(2-aminoethanesulfonic acid).bis(2-aminoethanesulfonate)]zinc]
[2]; [6]
  ALT, mean ± S.D.: 414.7 ± 36.2 IU
  AST, mean ± S.D.: 198.2 ± 22.5 IU
[2]; [7]
  ALT, mean ± S.D.: 459.0 ± 93.8 IU
  AST, mean ± S.D.: 186.8 ± 35.3 IU
[2]; conc. of test soln. 0.05 mg/dl
  ALT, mean ± S.D.: 389.2 ± 7.3 IU
  AST, mean ± S.D.: 79.4 ± 12.3 IU
[2]; conc. of test soln. 0.1 mg/dl
  ALT, mean ± S.D.: 435.7 ± 25.3 IU
  AST, mean ± S.D.: 33.5 ± 3.5 IU
[3]; 50 mg/kg orally
  Incidence of ulcer: 8/8
  Ulcer coefficient (mm) mean ± S.E.: 28.5 ± 4.6 mm
[3]; [8]
  Suppression %: 10.7%
[3]; 100 mg/kg orally
  Incidence of ulcer: 8/8
[3]; 100 mg/kg orally, * p < 0.01
  Ulcer coefficient (mm) mean ± S.E.: 14.4 ± 3.2 mm
[3]; 100 mg/kg orally, vs Vehicle No. 2
  Suppression %: 37.1%
[3]; 150 mg/kg orally
  Incidence of ulcer: 8/8
[3]; 150 mg/kg orally, ** p < 0.01
  Ulcer coefficient (mm) mean ± S.E.: 17.9 ± 3.2 mm
[3]; [9]
  Suppression %: 48.4%
[3]; oral, 30 min before water-soaking constraint
  UD50 (mg/kg) (95% C.L.): 146.9 mg/kg
Acetaldehyde toxicity; 250 mg/kg orally
  Death rate: 40%
  No. of dead animals (n/10): 4/10
Acetaldehyde toxicity; 500 mg/kg orally
  Death rate: 20%
  No. of dead animals (n/10): 2/10
[4]; 50 mg/kg orally
  Incidence of ulcer: 8/8
[4]; 50 mg/kg orally, * P < 0.01
  Ulcer coefficient (mm) mean ± S.E.: 30.4 ± 7.8 mm
[4]; [8]
  Suppression %: 35.5%
[4]; 75 mg/kg orally
  Incidence of ulcer: 8/8
  Ulcer coefficient (mm) mean ± S.E.: 30.2 ± 10.2 mm
[4]; 75 mg/kg orally, vs Vehicle No. 2
  Suppression %: 42.5%
[4]; 150 mg/kg orally
  Incidence of ulcer: 8/8
[4]; 150 mg/kg orally, * P < 0.01
  Ulcer coefficient (mm) mean ± S.E.: 11.7 ± 4.7 mm
[4]; [9]
  Suppression %: 67.9%
[4]; oral, 30 min before hydrochloric acid/ethanol
  UD50 (mg/kg) (95% C.L.): 86.0 mg/kg
[5]; 1,250 mg/kg oral
  Nd/No (No. of dead animals / total No.): 0/3
[5]; 2,500 mg/kg oral
  Nd/No (No. of dead animals / total No.): 0/3
[5]; 5,000 mg/kg oral
  Nd/No (No. of dead animals / total No.): 0/3
[1]
  ALT, mean ± S.D.: 8597.1 ± 1450.4 IU
  AST, mean ± S.D.: 7024.7 ± 1113.4 IU
